How the values were obtained:
[1] = 2-week rat toxicology and toxicokinetic study; assay type: in vivo; details: for Cmax / Tmax / AUC(0-t): po; for AUC(0-t): read-out: AUC0-24
[2] = Single-dose (25 mg) gender study in males and females (DOV-947-005); assay type: in vivo, human; details: for AUC(0-inf) / AUC(0-t) / Cmax / Tmax / half-life: human, in vivo, single oral dose 25 mg
[3] = Phase 2 efficacy study in patients with Major Depressive Disorder; assay type: in vivo, human
Excerpt: Subjects were identified who were between the ages of 18-65 (inclusive), and met criteria for Major Depressive Disorder in accordance with the Diagnostic and Statistical manual of Mental Disorders-IV-TR and confirmed by the MINI International Neuropsychiatric Interview.
Subjects were required to refrain from taking antidepressants, anticonvulsants including gabapentin and pregabalin, neuroleptics, MAO inhibitors, barbiturates, benzodiazepines, stimulants, antipsychotics, lithium, anxiolytics and beta blockers starting two weeks prior to the study and continuing until after the follow-up visit.
Samples were drawn to assess total bilirubin, alkaline phosphatase, ALT (SGPT), AST (SGOT), blood urea nitrogen (BUN), creatinine, glucose, uric acid, calcium, phosphorus, total protein, albumin, total cholesterol, LDL, HDL, triglycerides, sodium, potassium, bicarbonate, chloride, GGT and creatine kinase, Hepatitis B, C and HIV serologies, TSH, drug screen and serum pregnancy test for females.
Efficacy was determined by measuring the change from baseline in the Montgomery-Asberg Depression Rating Scale (MADRS), the HAMD-17, the Clinical Global Impression Global Improvement Scale (CGI-I), the Clinical Global Impression-Severity scale (CGI-S) and the Derogatis Interview for Sexual Functioning Self-Report (DISF-SR). […] Comparisons between treatment groups based on MADRS (the primary efficacy parameter), HAMD-17, Anhedonia, DISF-SR, CGI-I and CGI-S scores were analyzed using a mixed-repeated measures (MMRM) analysis model including factors for Subject, Visit, Treatment Arm and Baseline value as a covariate. Adjusted least-squares means from these models are presented. Comparisons between groups were made at each post-baseline visit using model-based contrasts and adjusted degrees of freedom. For these analyses no explicit data imputations were made prior to the analysis. Response and remission categorical data were analyzed using chi-square tests. Inferential analyses of safety data were conducted with ANOVA models or chi-square tests. Two-tail alpha was set to 0.05. All analyses were conducted using SAS version 9.2.

[4] = female, Crl:CD (SD)IGS BR, rat, in vivo, 10 mg/kg/day, females, 10 mg/kg/day, Day 0
[5] = female, Crl:CD (SD)IGS BR, rat, in vivo, 10 mg/kg/day, females, 10 mg/kg/day, Day 13
[6] = female, Crl:CD (SD)IGS BR, rat, in vivo, 20 mg/kg/day, females, 20 mg/kg/day, Day 0
[7] = female, Crl:CD (SD)IGS BR, rat, in vivo, 20 mg/kg/day, females, 20 mg/kg/day, Day 13
[8] = female, Crl:CD (SD)IGS BR, rat, in vivo, 40 mg/kg/day, females, 40 mg/kg/day, Day 0
[9] = female, Crl:CD (SD)IGS BR, rat, in vivo, 40 mg/kg/day, females, 40 mg/kg/day, Day 13
[10] = male, Crl:CD (SD)IGS BR, rat, in vivo, 10 mg/kg/day, males, 10 mg/kg/day, Day 13
[11] = male, Crl:CD (SD)IGS BR, rat, in vivo, 20 mg/kg/day, males, 20 mg/kg/day, Day 0
[12] = male, Crl:CD (SD)IGS BR, rat, in vivo, 20 mg/kg/day, males, 20 mg/kg/day, Day 13
[13] = male, Crl:CD (SD)IGS BR, rat, in vivo, 40 mg/kg/day, males, 40 mg/kg/day, Day 0
[14] = male, Crl:CD (SD)IGS BR, rat, in vivo, 40 mg/kg/day, males, 40 mg/kg/day, Day 13
[15] = male, Crl:CD(SD)IGS BR, rat, in vivo, 10 mg/kg/day, males, 10 mg/kg/day, Day 0
[16] = 100 mg, Visit 8, LOCF, Completers, 50% reduction or more of baseline total score
[17] = Visit 8 (Week 6), MMRM, MITT, n = 30

Clc1ccc([C@]23CNC[C@H]2C3)cc1Cl [amitifadine, (+)-1-(3,4-dichlorophenyl)-3-azabicyclo[3.1.0]hexane]
NOAEL at 14 days ([1]; both sexes, Crl:CD(SD)IGS BR, rat, in vivo, oral gavage, 14 days, read-out: NOAEL for systemic toxicity): 40 mg/kg/day | Cmax [1, 4]: 1830 ng/mL | Tmax [1, 4]: 2 h | AUC(0-t) [1, 4]: 11600 ng·h/mL | Cmax [1, 5]: 1150 ng/mL | Tmax [1, 5]: 2 h | AUC(0-t) [1, 5]: 8190 ng·h/mL | Cmax [1, 6]: 2800 ng/mL | Tmax [1, 6]: 1 h | AUC(0-t) [1, 6]: 28600 ng·h/mL | Cmax [1, 7]: 2300 ng/mL | Tmax [1, 7]: 1 h | AUC(0-t) [1, 7]: 22000 ng·h/mL | Cmax [1, 8]: 4440 ng/mL | Tmax [1, 8]: 4 h | AUC(0-t) [1, 8]: 50600 ng·h/mL | Cmax [1, 9]: 3100 ng/mL | Tmax [1, 9]: 2 h | AUC(0-t) [1, 9]: 32900 ng·h/mL | increase in mean absolute liver weight ([1]; females, 40 mg/kg/day): 18% | Cmax [1, 10]: 878 ng/mL | Tmax [1, 10]: 2 h | AUC(0-t) [1, 10]: 6310 ng·h/mL | Cmax [1, 11]: 3000 ng/mL | Tmax [1, 11]: 1 h | AUC(0-t) [1, 11]: 17400 ng·h/mL | Tmax [1, 12]: 2 h | AUC(0-t) [1, 12]: 13000 ng·h/mL | Cmax [1, 13]: 3040 ng/mL | Tmax [1, 13]: 1 h | AUC(0-t) [1, 13]: 34800 ng·h/mL | Cmax [1, 14]: 2730 ng/mL | Tmax [1, 14]: 1 h | AUC(0-t) [1, 14]: 25600 ng·h/mL | Tmax [1, 15]: 1 h | AUC(0-t) [1, 15]: 7880 ng·h/mL | increase in mean absolute liver weight ([1]; males, 40 mg/kg/day): 20% | QTc prolongation ([2]; 25 mg): no sustained or significant prolongation of QTc | gender difference in Cmax or AUC ([2]; 25 mg): no difference in either Cmax or AUC values between the two sexes | subjects with orthostatic hypotension ([2]; all subjects, 25 mg): 30% | AUC(0-inf) ([2]; female, Females (N = 38)): 1590 ng·h/mL | AUC(0-t) ([2]; female, Females (N = 38)): 1490 ng·h/mL | Cmax ([2]; female, Females (N = 38)): 291 ng/mL | Tmax ([2]; female, Females (N = 38)): 1.38 h | half-life ([2]; female, Females (N = 38)): 3.73 h | subjects with orthostatic hypotension ([2]; females, 25 mg): 28.9% | AUC(0-inf) ([2]; male, Males (N = 32)): 1440 ng·h/mL | AUC(0-t) ([2]; male, Males (N = 32)): 1360 ng·h/mL | Cmax ([2]; male, Males (N = 32)): 273 ng/mL | Tmax ([2]; male, Males (N = 32)): 1.27 h | half-life ([2]; male, Males (N = 32)): 3.41 h | subjects with orthostatic hypotension ([2]; males, 25 mg): 31.3% | DISF-SR scores vs placebo ([3]; 100 mg, low and high baseline groups): no differences between (+)-1-(3,4-dichlorophenyl)-3-azabicyclo[3.1.0]hexane 100 mg and placebo | Response rate, HAMD-17 (%) [3, 16]: 55.00% | Response rate, MADRS (%) [3, 16]: 40.00% | Remission rate, HAMD-17 (%) ([3]; 100 mg, Visit 8, LOCF, Completers, HAMD-17 ≦ 7): 20.00% | Remission rate, MADRS (%) ([3]; 100 mg, Visit 8, LOCF, Completers, MADRS ≦ 12): 30.00% | Anhedonia factor (LS Mean - SE) [3, 17]: 7.92 (0.50) | CGI-I (LS Mean - SE) [3, 17]: 2.13 (0.20) | CGI-S (LS Mean - SE) [3, 17]: 3.31 (0.15) | HAMD-17 (LS Mean - SE) [3, 17]: 14.90 (1.40) | MADRS (LS Mean - SE) [3, 17]: 18.16 (1.21) | MADRS, Difference (95% CI) placebo vs drug ([3]; Visit 8, MMRM, MITT, P = 0.028): 3.83 (0.41, 7.26) | CGI-I, Difference (95% CI) placebo vs drug ([3]; Visit 8, MMRM, MITT, P = 0.030): 0.62 (0.06, 1.18) | Anhedonia factor, Difference (95% CI) placebo vs drug ([3]; Visit 8, MMRM, MITT, P = 0.049): 1.41 (0.01, 2.82) | HAMD-17, Difference (95% CI) placebo vs drug ([3]; Visit 8, MMRM, MITT, P = 0.125): 3.12 (−0.87, 7.12) | CGI-S, Difference (95% CI) placebo vs drug ([3]; Visit 8, MMRM, MITT, P = 0.306): 0.22 (−0.21, 0.66) | Diastolic BP - Standing, Mean Change from baseline ([3]; Visit 8, Safety Population, n = 33, P value vs. placebo 0.017): −3.00 mm Hg | Supine Pulse, Mean Change from baseline ([3]; Visit 8, Safety Population, n = 33, P value vs. placebo 0.145): 1.55 beats per minute | LDL Cholesterol Fasting, Mean Change from baseline ([3]; Visit 8, Safety Population, n = 33, P value vs. placebo 0.374): -4.29 mg/dL | Total Cholesterol Fasting, Mean Change from baseline ([3]; Visit 8, Safety Population, n = 33, P value vs. placebo 0.412): -5.86 mg/dL | Systolic BP - Standing, Mean Change from baseline ([3]; Visit 8, Safety Population, n = 33, P value vs. placebo 0.509): 0.069 mm Hg | Triglycerides Fasting, Mean Change from baseline ([3]; Visit 8, Safety Population, n = 33, P value vs. placebo […]): -12.00 mg/dL | Systolic BP - Supine, Mean Change from baseline ([3]; Visit 8, Safety Population, n = 33, P value vs. placebo 0.904): 2.58 mm Hg | Diastolic BP - Supine, Mean Change from baseline ([3]; Visit 8, Safety Population, n = 33, P value vs. placebo 0.961): −0.38 mm Hg | Weight, Mean Change from baseline ([3]; Visit 8, Safety Population, n = 33, P value vs. placebo 0.965): 0.078 kg | overall statistical effect size (Cohen's d), MADRS ([3]; Week 6): −0.63 | MADRS total score, estimated LS mean change from baseline (MMRM) ([3]; Week 6, placebo […], p=0.028): 18.16 | patients who reported an adverse treatment event ([3]; human, in vivo): 30.30% | Treatment-Emergent Adverse Event: Abdominal Pain (NOS), % of Patients ([3]; n = 33): 6.06% | Treatment-Emergent Adverse Event: Abdominal Pain (NOS), number of patients ([3]; n = 33): 2 | Treatment-Emergent Adverse Event: Anxiety, % of Patients ([3]; n = 33): 6.06% | Treatment-Emergent Adverse Event: Anxiety, number of patients ([3]; n = 33): 2 | Treatment-Emergent Adverse Event: Diarrhea NOS, % of Patients ([3]; n = 33): 6.06% | Treatment-Emergent Adverse Event: Diarrhea NOS, number of patients ([3]; n = 33): 2 | Treatment-Emergent Adverse Event: Emotional Disturbance NOS, % of Patients ([3]; n = 33): 6.06% | Treatment-Emergent Adverse Event: Emotional Disturbance NOS, number of patients ([3]; n = 33): 2 | Treatment-Emergent Adverse Event: Headache NOS, % of Patients ([3]; n = 33): 9.09% | Treatment-Emergent Adverse Event: Headache NOS, number of patients ([3]; n = 33): 3 | Treatment-Emergent Adverse Event: Irritability, % of Patients ([3]; n = 33): 6.06% | Treatment-Emergent Adverse Event: Irritability, number of patients ([3]; n = 33): 2 | Treatment-Emergent Adverse Event: Nausea, % of Patients ([3]; n = 33): 6.06% | Treatment-Emergent Adverse Event: Nausea, number of patients ([3]; n = 33): 2 | Treatment-Emergent Adverse Event: Rash NOS, % of Patients ([3]; n = 33): 6.06% | Treatment-Emergent Adverse Event: Rash NOS, number of patients ([3]; n = 33): 2 | Treatment-Emergent Adverse Event: Upper Respiratory Tract Infection NOS, % of Patients ([3]; n = 33): 6.06% | Treatment-Emergent Adverse Event: Upper Respiratory Tract Infection NOS, number of patients ([3]; n = 33): 2

From patent US20160346249A1 (priority 2012, published 2016)
